The text below walks through data of ChEMBL document CHEMBL4376813, “Design, synthesis and biological evaluation of AT1 receptor blockers derived from 6-substituted aminocarbonyl benzimidazoles” (Eur J Med Chem, 2019).

Each structure is given as a SMILES string. Active and inactive are the calls of the source. The rule behind the calls is not given here.

Assay [1] in a line: Inhibition of [125I] Ang2 binding to AT1 receptor in Sprague-Dawley rat VSMC after 150 mins by gamma-counter method.
Assay [2] has as its system Rattus norvegicus. In words: […] activity in spontaneous hypertensive rat assessed as reduction in blood pressure at 5 to 10 mg/kg, po. It counts as functional, organism-based.
For assay [3], the system named is Rattus norvegicus. In words: […] activity in spontaneous hypertensive rat assessed as maximum reducing response of mean blood pressure at 10 mg/kg, po. It counts as functional.
In assay [4] the test system is Rattus norvegicus. As to the kind of experiment: […] activity in spontaneous hypertensive rat at 10 mg/kg, po after 24 hrs. It is filed as functional, organism-based.
In assay [5] the test system is Rattus norvegicus. As to the kind of experiment: […] activity in spontaneous hypertensive rat assessed as reduction in blood pressure at 10 mg/kg, po. It counts as functional, organism-based.

The IC50 is the concentration that inhibits the measured activity by half. A lower IC50 goes with greater potency in that assay. Broadly, the Ki is the dissociation constant of the complex between target and ligand, obtained from inhibition or displacement. In assay [1], `CCc1nc2c(C)cc(C(=O)NCCc3ccccc3)cc2n1Cc1ccc2c(ccn2-c2ccccc2C(=O)O)c1` displayed an IC50 of 12.1 nM and a Ki of 8.8 nM.
In assay [1], `CCCc1nc2c(C)cc(C(=O)NCCc3ccccc3)cc2n1Cc1cccc2c1ccn2-c1ccccc1C(=O)O` had an IC50 of 2.3 nM and a Ki of 1.7 nM. Moreover, the outcome in the assay on Rattus norvegicus [2] was Active. For the same compound, the Activity with Rattus norvegicus [3] was 57.6 mmHg. Also, in the assay on Rattus norvegicus [4], the outcome was Active.
In assay [1], `CCc1nc2c(C)cc(C(=O)NCCc3ccccc3)cc2n1Cc1cccc2c1ccn2-c1ccccc1C(=O)O` showed an IC50 of 4.8 nM and a Ki of 3.5 nM.
In assay [1], `CCCCc1nc2c(C)cc(C(=O)NCCc3ccccc3)cc2n1Cc1ccc2c(ccn2-c2ccccc2C(=O)O)c1` showed an IC50 of 3.7 nM and an inhibitory constant (Ki) of 2.7 nM. In addition, in the assay on Rattus norvegicus [2], the result was Active.
With `CCCCc1nc(Cl)c(CO)n1Cc1ccc(-c2ccccc2-c2nnn[nH]2)cc1` [LOSARTAN], in assay [1], the 50% inhibitory concentration (IC50) is 14.6 nM and the Ki stood at 10.5 nM. In addition, the result with Rattus norvegicus [5] was Active.
In assay [1], `CCCCc1nc2c(C)cc(C(=O)NCCc3ccccc3)cc2n1Cc1cccc2c1ccn2-c1ccccc1C(=O)O` registered an IC50 of 8.5 nM and a Ki of 6.2 nM.
In turn, `CCCc1nc2c(C)cc(C(=O)NCCc3ccccc3)cc2n1Cc1ccc2c(ccn2-c2ccccc2C(=O)O)c1` returned a 50% inhibitory concentration (IC50) in assay [1] of 2.6 nM. Besides, in assay [1], the affinity, expressed as Ki, was 1.9 nM. Moreover, the outcome with Rattus norvegicus [2] and in the assay with Rattus norvegicus [4] was Active. Further, the Activity in the assay on Rattus norvegicus [3] came out at 57.9 mmHg.
